{
  "source": "paper PMC4381587",
  "about": "“A novel PI3K inhibitor PIK-C98 displays potent preclinical activity against multiple myeloma” (Oncotarget, 2014)",
  "key": {"[1]": {"biological_target": "recombinant human PI3K isoform β (Homo sapiens, UniProt P42338)", "sequence (P42338 whole entry, canonical isoform)": "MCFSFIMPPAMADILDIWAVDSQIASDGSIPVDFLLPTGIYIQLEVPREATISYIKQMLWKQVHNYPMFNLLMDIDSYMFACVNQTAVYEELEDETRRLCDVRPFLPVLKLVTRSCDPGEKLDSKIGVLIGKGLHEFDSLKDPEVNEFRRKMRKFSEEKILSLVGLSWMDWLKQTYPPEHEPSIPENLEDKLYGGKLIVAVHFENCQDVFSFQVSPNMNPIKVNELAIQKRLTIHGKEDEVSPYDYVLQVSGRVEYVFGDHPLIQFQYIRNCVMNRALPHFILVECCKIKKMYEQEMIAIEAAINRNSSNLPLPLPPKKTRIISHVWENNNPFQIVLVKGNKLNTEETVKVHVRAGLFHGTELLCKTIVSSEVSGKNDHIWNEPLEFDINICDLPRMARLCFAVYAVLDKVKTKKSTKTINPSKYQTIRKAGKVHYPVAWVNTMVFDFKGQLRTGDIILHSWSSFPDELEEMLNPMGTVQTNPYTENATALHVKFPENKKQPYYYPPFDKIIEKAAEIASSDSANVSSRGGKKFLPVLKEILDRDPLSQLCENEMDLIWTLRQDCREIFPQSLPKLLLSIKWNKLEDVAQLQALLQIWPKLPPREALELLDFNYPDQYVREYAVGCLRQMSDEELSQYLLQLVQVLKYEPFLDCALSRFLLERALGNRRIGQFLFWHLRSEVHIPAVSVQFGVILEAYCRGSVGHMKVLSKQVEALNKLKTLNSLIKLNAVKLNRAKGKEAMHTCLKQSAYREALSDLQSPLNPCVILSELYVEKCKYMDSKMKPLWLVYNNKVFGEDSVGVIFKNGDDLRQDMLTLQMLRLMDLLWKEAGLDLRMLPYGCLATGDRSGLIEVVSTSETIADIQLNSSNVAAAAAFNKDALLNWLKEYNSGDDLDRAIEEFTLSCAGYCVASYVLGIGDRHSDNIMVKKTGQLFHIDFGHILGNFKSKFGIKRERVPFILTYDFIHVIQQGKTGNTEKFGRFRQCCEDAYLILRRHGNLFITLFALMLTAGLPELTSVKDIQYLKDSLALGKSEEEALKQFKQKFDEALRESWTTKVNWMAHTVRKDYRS", "sequence (P27986 whole entry partner, canonical isoform)": "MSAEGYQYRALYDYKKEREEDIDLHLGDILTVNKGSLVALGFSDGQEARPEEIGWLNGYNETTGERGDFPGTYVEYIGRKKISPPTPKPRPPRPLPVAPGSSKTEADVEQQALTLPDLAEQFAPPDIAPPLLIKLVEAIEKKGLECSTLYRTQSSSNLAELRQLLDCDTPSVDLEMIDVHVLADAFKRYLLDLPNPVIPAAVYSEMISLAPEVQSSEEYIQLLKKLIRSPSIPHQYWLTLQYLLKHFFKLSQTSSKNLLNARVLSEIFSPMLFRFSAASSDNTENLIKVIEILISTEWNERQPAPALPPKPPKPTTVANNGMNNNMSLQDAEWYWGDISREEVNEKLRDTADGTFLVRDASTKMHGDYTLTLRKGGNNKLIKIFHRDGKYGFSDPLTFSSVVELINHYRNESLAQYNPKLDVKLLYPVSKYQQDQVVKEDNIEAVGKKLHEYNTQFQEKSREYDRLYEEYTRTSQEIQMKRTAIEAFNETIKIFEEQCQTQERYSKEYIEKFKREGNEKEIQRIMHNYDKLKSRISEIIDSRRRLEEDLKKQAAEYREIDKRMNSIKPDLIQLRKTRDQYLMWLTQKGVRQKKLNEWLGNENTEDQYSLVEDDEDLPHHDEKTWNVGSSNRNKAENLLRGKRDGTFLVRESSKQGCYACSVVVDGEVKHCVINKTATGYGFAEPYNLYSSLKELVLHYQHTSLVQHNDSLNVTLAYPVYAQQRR", "experiment": "Kinase activity in cell-free assay (HotSpot), PI3Kβ", "format": "biochemical", "conditions": "read-out: IC50 against PI3K β isoform", "experimental": "(§1) To confirm this hypothesis, the inhibitory potency of C98 on PI3K enzymes was measured in a cell-free system with individual recombinant human PI3K isoforms. […] To further evaluate its specificity on PI3K, the effects of C98 on other associated kinases AKT, PDK1, and mTOR were also measured in the enzymatic systems. […] Therefore, C98 preferred to inhibit PI3K activity.\nFigure 1 C98 inhibits PI3K activity (A) Chemical structure of C98. (B) OPM2 cells were starved overnight and then treated with six compounds identified from the virtual screening for 2 hr, followed by IGF-1 stimulation for 15 min. Cell lysates were prepared for AKT expression and phosphorylation analyses. The known PI3K inhibitor S14161 was used as a positive control. (C) OPM2 cells were starved overnight, then treated with C98 at indicated concentration (25, 50 and 100 μM) or S14161 (100 μM) for 2 hr, followed by IGF-1 (100 ng/mL) stimulation for 15 min Cell lysates were prepared for AKT expression and phosphorylation analyses. […] Activity of each kinase was determined with HotSpot technology as described in the Methods section “Kinase activity in cell-free assay”. […]"}, "JJN3 xenograft": {"test_system": "JJN3 xenograft", "experiment": "JJN3 myeloma xenograft in nude mice", "format": "in vivo"}, "[2]": {"test_system": "AKT phosphorylation in LP1 and JJN3 cells", "experiment": "Immunoblotting of AKT phosphorylation in starved, IGF-1-stimulated LP1 and JJN3 cells", "format": "cell-based", "conditions": "2 hr, then IGF-1 100 ng/mL 15 min", "experimental": "(B) LP1 and JJN3 cells were starved overnight, then treated with C98 or S14161 for 2 hr, followed by IGF-1 (100 ng/mL) for 15 min. Cells were then prepared for the analysis of the expression of p-AKT, t-AKT, p-IGF-1R, and IGF-1R by immunoblotting. (C) OPM2 and JJN3 cells were treated with increasing concentrations of C98 for 24 hr before being applied to immunoblotting against p-ERK, t-ERK, p-P38, t-P38, p-Src, t-Src, p-STAT3, or t-STAT3. GAPDH and β-actin were used as loading controls.\nTo find out whether C98 also interfered with other signaling pathways, we first checked the receptor tyrosine kinase IGF-1R, which mediates PI3K activation in MM cells in the presence of IGF-1. Starved MM cells LP1 and JJN3 were incubated with C98 followed by IGF-1 stimulation. […] Moreover, we also measured the expression of PTEN, a negative regulator of PI3K signaling, in MM cells after C98 treatment.\nThe immunoblotting assays were performed as described previously. IRDye 680 goat anti-mouse and IRDye 800CW goat anti-rabbit antibodies were from Odyssey (San Ramon, CA, USA)."}, "mTOR": {"test_system": "T1, mTOR", "T1 construct": "purchased Reaction Biology Corp., Malvern, PA, USA", "experiment": "Kinase activity in cell-free assay, mTOR", "format": "biochemical", "conditions": "enzymatic system, even at a concentration of 300 μM", "experimental": "as §1\nKinase activity in the presence of C98 was performed by using the HotSpot technology (Reaction Biology Corp., Malvern, PA, USA) as described previously."}, "[3]": {"conditions": "JJN3 xenograft, 40 mg/kg oral daily, 16 days"}, "[4]": {"conditions": "JJN3 xenograft, 80 mg/kg oral daily, 16 days"}},
  "data": [
    {"smiles": "N#C/C(=C\\C=C\\c1ccc(-c2cc(Cl)ccc2Cl)o1)C(N)=S", "note": "[C98]", "values": [
      {"measurement": "IC50", "setting": "[1]", "value": 1640, "unit": "nM"},
      {"measurement": "AKT phosphorylation in tumors", "setting": "JJN3 xenograft; JJN3 tumors, both 40 and 80 mg/kg doses, immunoblotting", "value": "decreased"},
      {"measurement": "decrease of tumor growth", "setting": "JJN3 xenograft; [3]", "value": 48, "unit": "%"},
      {"measurement": "tumor volume", "setting": "JJN3 xenograft; [3]", "value": "1293.1 ± 289.7", "unit": "mm^3"},
      {"measurement": "decreased tumor growth to %", "setting": "JJN3 xenograft; [4]", "value": 76.5, "unit": "%"},
      {"measurement": "tumor volume", "setting": "JJN3 xenograft; [4]", "value": "581.2 ± 73.2", "unit": "mm^3"},
      {"measurement": "cleavage of PARP in tumors", "setting": "JJN3 xenograft; MM tumors excised from C98-treated mice, especially high dose group", "value": "cleavage of PARP was found"},
      {"measurement": "AKT phosphorylation", "setting": "[2]", "value": "suppressed AKT phosphorylation"},
      {"measurement": "suppression of mTOR activity", "setting": "mTOR", "value": "failed to suppress"}
    ]}
  ]
}
